This is an account of results in patent US4415570A, “Nicotinic acid derivatives” (Nippon Shinyaku Co. Ltd., priority 1981, dated 1983).

Test [1] deals with reversed passive Arthus reaction. Nature of the test: Reversed passive Arthus reaction (RPAR) inhibition, leakage area of Evans Blue. Type of test: in vivo, rats. The following applies: for RPAR inhibitory action: oral administration. As for the experimental part:
Activity of RPAR inhibition of the compounds of the present invention was measured in the following manner. Anti-BSA serum was obtained from rabbits that were previously administered bovine serum albumin ("BSA"). The anti-BSA serum was applied to four parts of the skin of the abdomens of rats previously treated with BSA and Evans Blue. The anti-BSA serum and the BSA and Evans Blue were administered to the rats subcutaneously. […] The local inflammation was determined by examining each of the four inflamed parts and measuring for each part the area from which there was leakage of Evans Blue. The data from the test animals were compared to the control animals, and a reduction in the leakage area of 20% or more was defined as a positive effect. The RPAR inhibition activity is reported as the number of positive effects per animal, divided by 4. Thus, two positive effects would be an RPAR of 2/4.

In a further test the test system is carrageenin edema. The test is described as follows: carrageenin edema inhibiting activity. The class given is in vivo. The following applies: intraperitoneal injection, 50 mg/kg. From the text: The RPAR inhibition activity of the compounds (I) of the present invention is not related to its anti-inflammatory activity.
In general terms: Carrageenan injected into the paw causes an acute inflammation.

Setting [2] is: Table I, 200 mg/kg body weight orally, number of positive effects (leakage area reduced 20% or more) out of 4 parts.
Setting [3] is: Table 2, 500 mg/kg p.o., number of positive effects out of 4 parts.
The mark [4] stands for this setting: Table 2, 200 mg/kg p.o., number of positive effects out of 4 parts.

`O=C(Nc1nc(-c2ccc(Cl)cc2)nc(N2CCCC2)n1)c1cccnc1` [Compound 1]: the “RPAR Inhibition” value in test [1] (setting [2]) is 2/4.

For the compound `O=C(Nc1nc(-c2ccc(Cl)cc2)nc(N2CCOCC2)n1)c1cccnc1` [Compound 2], the “RPAR Inhibition” value in test [1] (setting [2]) was 2/4.

As to `O=C(Nc1nc(-c2ccccc2Cl)nc(N2CCCCC2)n1)c1cccnc1` [Compound 3], the “RPAR Inhibition” value in test [1] (setting [2]) is 2/4.

Regarding `O=C(Nc1nc(-c2ccccc2Cl)nc(N2CCOCC2)n1)c1cccnc1` [Compound 4], the “RPAR Inhibition” value in test [1] (setting [2]) was 2/4.

For `O=C(Nc1nc(-c2ccccc2Cl)nc(N2CCCC2)n1)c1cccnc1` [Compound 5], in test [1] (setting [2]), the “RPAR Inhibition” value is 2/4.

On to `CCCCNc1nc(NC(=O)c2cccnc2)nc(-c2ccc(Cl)c(Cl)c2)n1` [Compound 6], for which the “RPAR Inhibition” value in test [1] (setting [2]) is given as 2/4.

`CCN(CC)c1nc(NC(=O)c2cccnc2)nc(-c2ccc(Cl)c(Cl)c2)n1` [Compound 7]: the “RPAR Inhibition” value in test [1] (setting [2]) is 3/4.

With `O=C(Nc1nc(-c2cc(Cl)ccc2Cl)nc(N2CCCCC2)n1)c1cccnc1` [Compound 8], in test [1] (setting [2]), the “RPAR Inhibition” value is given as 3/4.

`O=C(Nc1nc(-c2cc(Cl)ccc2Cl)nc(N2CCOCC2)n1)c1cccnc1` [Compound 9]: in test [1], the “RPAR inhibition activity (in words)” value is on record as “strongly inhibits RPAR”. For the same compound, the “RPAR Inhibition” value in test [1] (setting [2]) is 4/4. Moreover, in the test with carrageenin edema, the “carrageenin edema inhibiting activity” value came out at 21%.

With `CN(C)c1nc(NC(=O)c2cccnc2)nc(-c2ccc(F)cc2)n1` [Compound 10], the “RPAR Inhibition” value in test [1] (setting [2]) was 3/4.

In the case of `Nc1nc(N)nc(-c2cc(Cl)ccc2Cl)n1` [Compound 11], the “RPAR inhibition activity (in words)” value in test [1] is given as “do not exhibit RPAR inhibition activity at all”. Further, the “RPAR Inhibition” value in test [1] (setting [3]) is listed as 0/4.

Turning to `Nc1nc(N)nc(-c2ccc(Cl)cc2)n1` [Compound 12], the “RPAR inhibition activity (in words)” value in test [1] is on record as “do not exhibit RPAR inhibition activity at all”. In addition, in test [1] (setting [3]), the “RPAR Inhibition” value was 0/4.

For `Nc1nc(NC(=O)c2cccnc2)nc(-c2ccccc2)n1` [Compound 13], the “RPAR inhibition activity (in words)” value in test [1] is recorded as “little or no RPAR inhibition activity”. Besides, the results for the “RPAR Inhibition” value in test [1] (setting [4]) and in test [1] (setting [3]) were 0/4 and 2/4, respectively.

As for `Nc1nc(NC(=O)c2cccnc2)nc(-c2c(Cl)cccc2Cl)n1` [Compound 14], in test [1] (setting [4]), the “RPAR Inhibition” value is given as 0/4.

Consider `Nc1nc(NC(=O)c2cccnc2)nc(-c2ccc(Cl)cc2)n1` [Compound 15], for which the “RPAR inhibition activity (in words)” value in test [1] is on record as “no RPAR inhibition activity”. Moreover, in test [1] (setting [4]), the “RPAR Inhibition” value was 0/4. The “carrageenin edema inhibiting activity” value in the test with carrageenin edema came to 56.8%.

Regarding `Nc1nc(NC(=O)c2cccnc2)nc(-c2cccc(Cl)c2)n1` [Compound 16], in test [1] (setting [4]), the “RPAR Inhibition” value is given as 0/4.

For `Nc1nc(NC(=O)c2cccnc2)nc(-c2ccccc2I)n1` [Compound 17], the “RPAR Inhibition” value in test [1] (setting [4]) is reported as 1/4.

Take `CC(=O)Oc1ccccc1C(=O)O` [aspirin]: the RPAR inhibitory action entry in test [1] (200 mg/kg) is reported as “no RPAR inhibitory action”.

Regarding `COc1ccc2c(c1)c(CC(=O)O)c(C)n2C(=O)c1ccc(Cl)cc1` [indomethacin], the RPAR inhibitory action entry in test [1] (10 mg/kg) is listed as “no RPAR inhibitory action”.

For the compound `CCCCC1C(=O)N(c2ccccc2)N(c2ccccc2)C1=O` [phenylbutazone], in test [1] (100 mg/kg), the RPAR inhibitory action entry was “no RPAR inhibitory action”.
